Experimental data: patent US7510836B2, “Alpha arteether resistance domain” (priority 2003, dated 2009)
In brackets after ≈: the same amount, converted by molar mass.

How the values were obtained:
E. coli ET8000 = assay: Minimum inhibitory concentration (cross resistance); format: cell-based; settings: Escherichia coli; strain ET8000
Excerpt: (§1) The minimum inhibitory concentrations (MIC) of the quinolone and fluoroquinolone antibiotics were quantified for different strains and compared among each other. The differential response indicate the measure of resistance and sensitivity. Higher MIC indicate more resistance.

E. coli CA8000 = assay: as above; format: cell-based; settings: Escherichia coli; strain CA8000
Excerpt: as §1

E. coli DH5a = assay: as above; format: cell-based; settings: Escherichia coli; strain DH5a
Excerpt: as §1

E. coli NK5819 = assay: as above; format: cell-based; settings: Escherichia coli; strain NK5819
Excerpt: as §1

E. coli mutant CA8005 = assay: as above; format: cell-based; settings: Escherichia coli; strain CA8005
Excerpt: (§2) In order to develop an arteether resistant mutants from an arteether sensitive strains a reverse strategy was applied. Quinoline/fluoroquinolone (Q/FQs) resistant strains were developed spontaneously i.e. screening overnight log phase culture of the Quinolone/fluoroquinolone sensitive i.e. arteether resistant strain (E coli CA 8000) on the poison agar plate of the Q/FQs. The Q/FQ resistant mutants which appeared on the poison agar plates were first purified through single colony purification and then checked for their arteether sensitivity. These arteether sensitive mutants on the contrary when checked for their Q/Fqs resistance they show different level of Q/FQs resistance.
as §1

E. coli mutant CA8007 = assay: as above; format: cell-based; settings: Escherichia coli; strain CA8007
Excerpt: as §2, §1

E. coli mutant CA8001 = assay: as above; format: cell-based; settings: Escherichia coli; strain CA8001
Excerpt: as §2, §1

E. coli mutant CA8006 = assay: as above; format: cell-based; settings: Escherichia coli; strain CA8006
Excerpt: as §2, §1

E. coli mutant CA8003 = assay: as above; format: cell-based; settings: Escherichia coli; strain CA8003
Excerpt: as §2, §1

E. coli mutant CA80012 = assay: as above; format: cell-based; settings: Escherichia coli, read-out: minimum inhibitory concentration (MIC)
Excerpt: as §2, §1

E. coli mutant CA80010 = assay: as above; format: cell-based; settings: Escherichia coli, read-out: minimum inhibitory concentration (MIC)
Excerpt: as §2, §1

E. coli mutant CA8002 = assay: as above; format: cell-based; settings: Escherichia coli; strain CA8002
Excerpt: as §2, §1

E. coli mutant CA8009 = assay: as above; format: cell-based; settings: Escherichia coli; strain CA8009
Excerpt: as §2, §1

[1] = system: E.coli strain CA 8000 (Gyr+); assay: Phenotype of strain (resistance or sensitivity); format: cell-based, Escherichia coli; settings: E.coli CA 8000 (Gyr+)
Procedure: To ascertain the involvement of gyrA mutation, another E.coli strain NK 5819 which is also GyrA″ and nalidixic acid resistant was tested for arteether sensitivity. As expected, strain NK5819 was also sensitive only to a-isomer of arteether. […] The assays for arteether sensitivity was performed by the standard single disk diffusion method (Bauer et al, 1966). As a next step, we isolated gyrA mutants of E.coli strain CA 8000, which is otherwise Gyr+ and nalidixic acid sensitive. The gyrA mutants of CA8000 were isolated as nalidixic acid resistant colonies (20 ug/ml), after mutagenic treatment with NTG ([…]). The isolated CA8000 gyrA mutants were also sensitive only to a isomer of arteether. […] To define precisely the involvement of gyr genes only in the a-arteether sensitivity, we utilised two recombinant clones (pMK 90 and pMK47 containing functional gyr A and gyrB genes respectively) in trans-complementation assays. For this purpose, we mobilized the plasmid clones into the E.coli gyr mutant strains. The resulting transformants were now nalidixic acid sensitive and a-arteether resistant. This constituted the direct evidence supporting our observation that DNA gyrase enzyme alone is involved in conferring a-arteether sensitivity to E.coli strain. […] DNA gyrase enzyme is essential for the bacterial growth. […]

malaria = settings: antimalarial; cited from earlier work

## CCn1cc(C(=O)O)c(=O)c2cc(F)c(N3CCNCC3)cc21 [Norfloxacin]
E. coli ET8000
  MIC: 50 µg/mL (≈ 157 µM)
E. coli CA8000
  MIC: < 0.05 µg/mL
E. coli DH5a
  MIC: 20 µg/mL (≈ 62.6 µM)
E. coli NK5819
  MIC: 25 µg/mL (≈ 78.3 µM)
E. coli mutant CA8005
  MIC: 10 µg/mL (≈ 31.3 µM)
E. coli mutant CA8007
  MIC: 15 µg/mL (≈ 47 µM)
E. coli mutant CA8001
  MIC: 15 µg/mL (≈ 47 µM)
E. coli mutant CA8006
  MIC: 20 µg/mL (≈ 62.6 µM)
E. coli mutant CA8003
  MIC: 15 µg/mL (≈ 47 µM)
E. coli mutant CA80012
  MIC: 15 µg/mL (≈ 47 µM)
E. coli mutant CA80010
  MIC: 15 µg/mL (≈ 47 µM)
E. coli mutant CA8002
  MIC: 15 µg/mL (≈ 47 µM)
E. coli mutant CA8009
  MIC: 15 µg/mL (≈ 47 µM)

## C[C@@H]1CN(c2c(F)c(N)c3c(=O)c(C(=O)O)cn(C4CC4)c3c2F)C[C@H](C)N1 [Sparfloxacin]
E. coli ET8000
  MIC: 20 µg/mL (≈ 51 µM)
E. coli CA8000
  MIC: < 0.05 µg/mL
E. coli DH5a
  MIC: 10 µg/mL (≈ 25.5 µM)
E. coli NK5819
  MIC: 10 µg/mL (≈ 25.5 µM)
E. coli mutant CA8005
  MIC: 20 µg/mL (≈ 51 µM)
E. coli mutant CA8007
  MIC: 20 µg/mL (≈ 51 µM)
E. coli mutant CA8001
  MIC: 20 µg/mL (≈ 51 µM)
E. coli mutant CA8006
  MIC: 40 µg/mL (≈ 102 µM)
E. coli mutant CA8003
  MIC: 20 µg/mL (≈ 51 µM)
E. coli mutant CA80012
  MIC: 40 µg/mL (≈ 102 µM)
E. coli mutant CA80010
  MIC: 40 µg/mL (≈ 102 µM)
E. coli mutant CA8002
  MIC: 20 µg/mL (≈ 51 µM)
E. coli mutant CA8009
  MIC: 40 µg/mL (≈ 102 µM)

## CCO[C@H]1O[C@@H]2O[C@@]3(C)CC[C@H]4[C@H](C)CC[C@@H]([C@H]1C)[C@@]24OO3 [arteethers, arteether]
[1]
  Sensitivity or resistance of the strain (words): resistant
malaria
  Potency relative to artemisinin: 2-3 times
